From PubChem BioAssay AID248 (DTP/NCI, 2004)
Several values for one entry are separate records, joined by “and”; a condition that tells them apart may be missing. Equal entries are not always repeated. Inconclusive results and toxic doses are left out. Rule as the data show it: active = T/C of 150% or more; inactive = T/C below 125%.

Test system: L1210 leukemia ip in BDF1 mice, survival T/C
Experiment: NCI In Vivo Anticancer Drug Screen. Data for tumor model L1210 Leukemia (intraperitoneal) in B6D2F1 (BDF1) mice
Conditions: endpoint: mean survival time, higher = longer survival
How it was run: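 Tumor was transplanted into mice, which were then dosed with test compound or vehicle alone. Survival was recorded for each group, and the treated figure was expressed relative to the control figure.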

[1] = dose: 100.0 mg/kg/injection, schedule: Q01DX009 (ip), vehicle: Klucel (hydroxypropylcellulose) (HPC)
[2] = dose: 200.0 mg/kg/injection, schedule: Q01DX009 (ip), vehicle: Klucel (hydroxypropylcellulose) (HPC)
[3] = dose: 100.0 mg/kg/injection, schedule: Q04DX003 (ip), vehicle: Klucel (hydroxypropylcellulose) (HPC)
[4] = dose: 100.0 mg/kg/injection, schedule: Q04DX003 (ip), vehicle: saline with Tween-80
[5] = dose: 200.0 mg/kg/injection, schedule: Q04DX003 (ip), vehicle: Klucel (hydroxypropylcellulose) (HPC)
[6] = dose: 200.0 mg/kg/injection, schedule: Q04DX003 (ip), vehicle: saline with Tween-80
[7] = dose: 400.0 mg/kg/injection, schedule: Q04DX003 (ip), vehicle: Klucel (hydroxypropylcellulose) (HPC)
[8] = dose: 400.0 mg/kg/injection, schedule: Q04DX003 (ip), vehicle: saline with Tween-80
[9] = dose: 75.0 mg/kg/injection, schedule: Q01DX001 (ip), vehicle: saline
[10] = dose: 150.0 mg/kg/injection, schedule: Q01DX001 (ip), vehicle: saline

Measured: T/C

COc1cc(C(=O)NCC2(C)OC3(OC(=O)C2O)C(=O)N/C(=C(\C=O)C(C)=O)OC3C(O)C2CN2C(C)=O)c2cccc(C)c2c1 (configuration not stated)
inactive: dose: 0.05 mg/kg/injection, schedule: Q01DX015 (oral), vehicle: clinical formulation 107 % of control | dose: 0.1 mg/kg/injection, schedule: Q01DX001 (ip), vehicle: clinical formulation 104 % of control and 120 % of control | dose: 0.1 mg/kg/injection, schedule: Q01DX015 (oral), vehicle: clinical formulation 113 % of control | dose: 0.15 mg/kg/injection, schedule: Q03DX005 (ip), vehicle: clinical formulation 111 % of control | dose: 0.2 mg/kg/injection, schedule: Q01DX001 (ip), vehicle: clinical formulation 103 % of control | dose: 0.2 mg/kg/injection, schedule: Q07DX003 (ip), vehicle: clinical formulation 105 % of control | dose: 0.4 mg/kg/injection, schedule: Q01DX001 (ip), vehicle: clinical formulation 95 % of control and 115 % of control | dose: 0.8 mg/kg/injection, schedule: Q01DX001 (ip), vehicle: clinical formulation 107 % of control | dose: 3.5 micrograms/kg/injection, schedule: Q03DX005 (ip), vehicle: clinical formulation 114 % of control | dose: 6.0 micrograms/kg/injection, schedule: Q01DX015 (ip), vehicle: clinical formulation 112 % of control | dose: 6.0 micrograms/kg/injection, schedule: Q01DX045 (ip), vehicle: clinical formulation 124 % of control | dose: 7.0 micrograms/kg/injection, schedule: Q03DX005 (ip), vehicle: clinical formulation 122 % of control | dose: 12.5 micrograms/kg/injection, schedule: Q01DX006 (iv), vehicle: clinical formulation 109 % of control | dose: 12.5 micrograms/kg/injection, schedule: Q01DX015 (im), vehicle: clinical formulation 103 % of control | dose: 12.5 micrograms/kg/injection, schedule: Q01DX045 (ip), vehicle: clinical formulation 118 % of control | dose: 13.0 micrograms/kg/injection, schedule: Q01DX Z (ip), vehicle: saline 113 % of control | dose: 13.0 micrograms/kg/injection, schedule: Q07DX003 (ip), vehicle: clinical formulation 118 % of control | dose: 25.0 micrograms/kg/injection, schedule: Q01DX006 (iv), vehicle: clinical formulation 101 % of control | dose: 25.0 micrograms/kg/injection, schedule: Q01DX015 (im), vehicle: clinical formulation 109 % of control | dose: 25.0 micrograms/kg/injection, schedule: Q01DX Z (ip), vehicle: saline 113 % of control | dose: 25.0 micrograms/kg/injection, schedule: Q07DX003 (ip), vehicle: clinical formulation 124 % of control | dose: 50.0 micrograms/kg/injection, schedule: Q01DX006 (iv), vehicle: clinical formulation 115 % of control | dose: 50.0 micrograms/kg/injection, schedule: Q01DX015 (im), vehicle: clinical formulation 115 % of control | dose: 50.0 micrograms/kg/injection, schedule: Q01DX Z (ip), vehicle: saline 98 % of control and 107 % of control | dose: 100.0 micrograms/kg/injection, schedule: Q01DX006 (iv), vehicle: clinical formulation 123 % of control | dose: 100.0 micrograms/kg/injection, schedule: Q01DX015 (im), vehicle: clinical formulation 110 % of control | dose: 100.0 micrograms/kg/injection, schedule: Q01DX015 (ip), vehicle: clinical formulation 95 % of control | dose: 100.0 micrograms/kg/injection, schedule: Q01DX Z (ip), vehicle: saline 89 % of control

CC1=NN(c2ccccc2)C(=O)/C1=C\c1ccccc1
inactive: [1] 97 % of control | [2] 95 % of control

CCO/C=C1\SC(=S)N(c2ccccc2C)C1=O
inactive: [3] 98 % of control | [4] 100 % of control | [2] 91 % of control | [5] 109 % of control | [6] 100 % of control | [7] 104 % of control | [8] 91 % of control

O=C(O)/C=C/c1ccc(Cl)cc1
inactive: dose: 100.0 mg/kg/injection, schedule: Q04DX002 (ip), vehicle: gum acacia 107 % of control | dose: 200.0 mg/kg/injection, schedule: Q04DX002 (ip), vehicle: gum acacia 95 % of control | dose: 400.0 mg/kg/injection, schedule: Q04DX002 (ip), vehicle: gum acacia 107 % of control

Oc1cccc(-c2nnc(-c3cccc(O)c3)nn2)c1
inactive: dose: 100.0 mg/kg/injection, schedule: Q01DX001 (ip), vehicle: saline 101 % of control | dose: 200.0 mg/kg/injection, schedule: Q01DX001 (ip), vehicle: saline 96 % of control | dose: 400.0 mg/kg/injection, schedule: Q01DX001 (ip), vehicle: saline 102 % of control

CC1=C(c2ccccc2)C(c2ccccc2)=C(C)C1=NNc1ccc([N+](=O)[O-])cc1[N+](=O)[O-]
inactive: dose: 100.0 mg/kg/injection, schedule: Q01DX001 (ip), vehicle: saline with Tween-80 86 % of control | dose: 200.0 mg/kg/injection, schedule: Q01DX001 (ip), vehicle: saline with Tween-80 86 % of control | dose: 400.0 mg/kg/injection, schedule: Q01DX001 (ip), vehicle: saline with Tween-80 86 % of control

C(=NCc1ccccc1)C1(c2ccccc2)OC1c1ccccc1 (configuration not stated)
inactive: [3] 91 % of control | [5] 87 % of control | [7] 88 % of control

CC(C)(SCc1ccccc1)C(N)C(=O)O (configuration not stated)
inactive: [9] 104 % of control | dose: 100.0 mg/kg/injection, schedule: Q01DX009 (ip), vehicle: saline 91 % of control | dose: 100.0 mg/kg/injection, schedule: Q04DX003 (ip), vehicle: saline 105 % of control | [10] 98 % of control | dose: 200.0 mg/kg/injection, schedule: Q01DX009 (ip), vehicle: saline 98 % of control | dose: 200.0 mg/kg/injection, schedule: Q04DX003 (ip), vehicle: saline 102 % of control | dose: 400.0 mg/kg/injection, schedule: Q01DX009 (ip), vehicle: saline 91 % of control | dose: 400.0 mg/kg/injection, schedule: Q04DX003 (ip), vehicle: saline 97 % of control

CC(=O)OC(C)(C)/C=C/C(=O)C(C)(O)C1C(O)CC2(C)C3CC=C4C(C=C(OC5OC(CO)C(O)C(O)C5O)C(=O)C4(C)C)C3(C)C(=O)CC12C (configuration not stated)
inactive: dose: 25.0 mg/kg/injection, schedule: Q04DX002 (ip), vehicle: saline with Tween-80 98 % of control | dose: 50.0 mg/kg/injection, schedule: Q04DX002 (ip), vehicle: saline with Tween-80 98 % of control | dose: 100.0 mg/kg/injection, schedule: Q04DX002 (ip), vehicle: saline with Tween-80 96 % of control and 105 % of control

Nc1cc(Cl)cc2c1nc(NCCO)c1ccccc12
inactive: [3] 97 % of control | [5] 90 % of control | [7] 98 % of control

COc1ccc(C2CCc3cc4c(cc3/C2=N/OC(C)=O)OCO4)cc1OC (configuration not stated)
inactive: [1] 105 % of control | [3] 102 % of control | [2] 97 % of control | [5] 101 % of control | dose: 400.0 mg/kg/injection, schedule: Q01DX009 (ip), vehicle: Klucel (hydroxypropylcellulose) (HPC) 92 % of control | [7] 101 % of control

C=CC(O)c1ccccc1 (configuration not stated)
inactive: dose: 75.0 mg/kg/injection, schedule: Q01DX009 (ip), vehicle: saline with Tween-80 90 % of control | dose: 75.0 mg/kg/injection, schedule: Q04DX003 (ip), vehicle: saline with Tween-80 89 % of control | dose: 150.0 mg/kg/injection, schedule: Q01DX009 (ip), vehicle: saline with Tween-80 87 % of control | dose: 150.0 mg/kg/injection, schedule: Q04DX003 (ip), vehicle: saline with Tween-80 109 % of control | dose: 300.0 mg/kg/injection, schedule: Q01DX009 (ip), vehicle: saline with Tween-80 88 % of control | dose: 300.0 mg/kg/injection, schedule: Q04DX003 (ip), vehicle: saline with Tween-80 105 % of control

COc1cc(Cc2cnc(NC(C)=O)nc2NC(C)=O)cc(OC)c1OC
inactive: dose: 12.5 mg/kg/injection, schedule: Q01DX009 (ip), vehicle: saline with Tween-80 92 % of control | dose: 12.5 mg/kg/injection, schedule: Q04DX003 (ip), vehicle: saline with Tween-80 101 % of control | dose: 25.0 mg/kg/injection, schedule: Q01DX009 (ip), vehicle: saline with Tween-80 95 % of control | dose: 25.0 mg/kg/injection, schedule: Q04DX003 (ip), vehicle: saline with Tween-80 101 % of control | dose: 50.0 mg/kg/injection, schedule: Q01DX009 (ip), vehicle: saline with Tween-80 88 % of control | dose: 50.0 mg/kg/injection, schedule: Q04DX003 (ip), vehicle: saline with Tween-80 95 % of control

CC1CCC(NC2=NCCO2)C1 (configuration not stated)
inactive: [4] 96 % of control | [6] 93 % of control | [8] 93 % of control

O=C(Nc1c(Oc2ccc(Cl)c(Cl)c2)ccc(Cl)c1S(=O)(=O)O)Nc1c(Oc2ccc(Cl)c(Cl)c2)ccc(Cl)c1S(=O)(=O)O
inactive: [9] 101 % of control | [10] 99 % of control | dose: 300.0 mg/kg/injection, schedule: Q01DX001 (ip), vehicle: saline 96 % of control
